Reference: patent publication US12677832B2, “Oxadiazole compounds for controlling or preventing phytopathogenic fungi” (PI INDUSTRIES LTD., priority 2019, dated 2026)

These compounds were tested on Phakopsora pachyrhizi (assay: Phakopsora pachyrhizi Test in Soybean (preventive spray)). Details: preventive spray on Soybean plants, inoculated one day after treatment, disease severity vs untreated control.
Assay type: in vivo
Experimental: Example 7: Phakopsora pachyrhizi Test in Soybean Compounds were dissolved in 2% dimethyl sulfoxide/acetone and then mixed with water containing an emulsifier to a calibrated spray volume of 50 mL. This 50 mL spray solution was poured into spray bottles for further applications. To test the preventive activity of compounds, healthy young Soybean plants, raised in the greenhouse, were sprayed with the active compound preparation at the stated application rates inside the spray cabinets using hollow cone nozzles. One day after treatment, the plants were inoculated with a spore suspension containing 2×10^5Phakopsora pachyrhizi conidia. The inoculated plants were then kept in a greenhouse chamber at 22-24° C. temperature and 80-90% relative humidity for disease expression. A visual assessment of the compound's performance was carried out by rating the disease severity (0-100% scale) on treated plants 3, 7, 10 and 15 days after application. Efficacy (% control) of the compounds was calculated by comparing the disease rating in the treatment with the one of the untreated control. The sprayed plants were also assessed for plant compatibility by recording symptoms like necrosis, chlorosis and stunting.

| SMILES | pest or weed control at 500 ppm [%] |
| --- | --- |
| Cc1ccc(Cl)c(OCC(=O)c2ccc(-c3noc(C(F)(F)F)n3)cc2)c1 [Compound 33, 2-(2-chloro-5-methylphenoxy)-1-(4-(5-(trifluoromethyl)-1,2,4-oxadiazol-3-yl)phenyl)ethan-1-one] | ≥ 70 |
| Cc1ccc(C(F)(F)F)c(OCC(=O)c2ccc(-c3noc(C(F)(F)F)n3)cc2)n1 [Compound 45, 2-((6-methyl-3-(trifluoromethyl)pyridin-2-yl)oxy)-1-(4-(5-(trifluoromethyl)-1,2,4-oxadiazol-3-yl)phenyl)ethan-1-one] | ≥ 70 |
| Cc1ccc(SCC(=O)c2ccc(-c3noc(C(F)(F)F)n3)cc2)cc1 [Compound 22, 2-(p-tolylthio)-1-(4-(5-(trifluoromethyl)-1,2,4-oxadiazol-3-yl)phenyl)ethan-1-one] | ≥ 70 |
| Cc1ccc(C)c(OCC(=O)c2ccc(-c3noc(C(F)(F)F)n3)cc2)c1 [Compound 16, 2-(2,5-dimethylphenoxy)-1-(4-(5-(trifluoromethyl)-1,2,4-oxadiazol-3-yl)phenyl)ethan-1-one] | ≥ 70 |
| COc1cccc(SCC(=O)c2ccc(-c3noc(C(F)(F)F)n3)cc2)c1 [Compound 14, 2-((3-methoxyphenyl)thio)-1-(4-(5-(trifluoromethyl)-1,2,4-oxadiazol-3-yl)phenyl)ethan-1-one] | ≥ 70 |
| O=C(CSc1ccc(Cl)cc1)c1ccc(-c2noc(C(F)(F)F)n2)cc1 [Compound 53, 2-((4-chlorophenyl)thio)-1-(4-(5-(trifluoromethyl)-1,2,4-oxadiazol-3-yl)phenyl)ethan-1-one] | ≥ 70 |
| COc1ccccc1OCC(=O)c1ccc(-c2noc(C(F)(F)F)n2)cc1 [Compound 11, 2-(2-methoxyphenoxy)-1-(4-(5-(trifluoromethyl)-1,2,4-oxadiazol-3-yl)phenyl)ethan-1-one] | ≥ 70 |
| O=C(C[S+]([O-])c1cccc(F)c1)c1ccc(-c2noc(C(F)(F)F)n2)cc1 (stereo not drawn) [Compound 87, 2-((3-fluorophenyl)sulfinyl)-1-(4-(5-(trifluoromethyl)-1,2,4-oxadiazol-3-yl)phenyl)ethan-1-one] | ≥ 70 |
| O=C(COc1ccc(Cl)cc1)c1ccc(-c2noc(C(F)(F)F)n2)cc1 [Compound 6, 2-(4-chlorophenoxy)-1-(4-(5-(trifluoromethyl)-1,2,4-oxadiazol-3-yl)phenyl)ethan-1-one] | ≥ 70 |
| Cc1ccc([S+]([O-])CC(=O)c2ccc(-c3noc(C(F)(F)F)n3)cc2)cc1 (stereo not drawn) [Compound 86, 2-(p-tolylsulfinyl)-1-(4-(5-(trifluoromethyl)-1,2,4-oxadiazol-3-yl)phenyl)ethan-1-one] | ≥ 70 |
| O=C(COc1ccnc(Cl)c1)c1ccc(-c2noc(C(F)(F)F)n2)cc1 [Compound 44, 2-((2-chloropyridin-4-yl)oxy)-1-(4-(5-(trifluoromethyl)-1,2,4-oxadiazol-3-yl)phenyl)ethan-1-one] | ≥ 70 |
| O=C(C[S+]([O-])c1cccc(C(F)(F)F)c1)c1ccc(-c2noc(C(F)(F)F)n2)cc1 (stereo not drawn) [Compound 85, 1-(4-(5-(trifluoromethyl)-1,2,4-oxadiazol-3-yl)phenyl)-2-((3-(trifluoromethyl)phenyl)sulfinyl)ethan-1-one] | ≥ 70 |
| O=C(COc1ccc(C(F)(F)F)cc1)c1ccc(-c2noc(C(F)(F)F)n2)cc1 [Compound 36, 1-(4-(5-(trifluoromethyl)-1,2,4-oxadiazol-3-yl)phenyl)-2-(4-(trifluoromethyl)phenoxy)ethan-1-one] | ≥ 70 |
| O=C(CSc1cccc(F)c1)c1ccc(-c2noc(C(F)(F)F)n2)cc1 [Compound 64, 2-((3-fluorophenyl)thio)-1-(4-(5-(trifluoromethyl)-1,2,4-oxadiazol-3-yl)phenyl)ethan-1-one] | ≥ 70 |
| Cc1cccc(SCC(=O)c2ccc(-c3noc(C(F)(F)F)n3)cc2)c1 [Compound 67, 2-(m-tolylthio)-1-(4-(5-(trifluoromethyl)-1,2,4-oxadiazol-3-yl)phenyl)ethan-1-one] | ≥ 70 |
| O=C(C[S+]([O-])c1ccccc1F)c1ccc(-c2noc(C(F)(F)F)n2)cc1 (stereo not drawn) [Compound 88, 2-((2-fluorophenyl)sulfinyl)-1-(4-(5-(trifluoromethyl)-1,2,4-oxadiazol-3-yl)phenyl)ethan-1-one] | ≥ 70 |
| O=C(COc1cc(F)cc(Cl)c1)c1ccc(-c2noc(C(F)(F)F)n2)cc1 [Compound 42, 2-(3-chloro-5-fluorophenoxy)-1-(4-(5-(trifluoromethyl)-1,2,4-oxadiazol-3-yl)phenyl)ethan-1-one] | ≥ 70 |
| CC(c1ccccc1)[S+]([O-])CC(=O)c1ccc(-c2noc(C(F)(F)F)n2)cc1 (stereo not drawn) [Compound 82, 2-((1-phenylethyl)sulfinyl)-1-(4-(5-(trifluoromethyl)-1,2,4-oxadiazol-3-yl)phenyl)ethan-1-one] | ≥ 70 |
| O=C(CS(=O)(=O)c1cccc(C(F)(F)F)c1)c1ccc(-c2noc(C(F)(F)F)n2)cc1 [Compound 103, 1-(4-(5-(trifluoromethyl)-1,2,4-oxadiazol-3-yl)phenyl)-2-((3-(trifluoromethyl)phenyl)sulfonyl)ethan-1-one] | ≥ 70 |
| CC(SCC(=O)c1ccc(-c2noc(C(F)(F)F)n2)cc1)c1ccccc1 (stereo not drawn) [Compound 58, 2-((1-phenylethyl)thio)-1-(4-(5-(trifluoromethyl)-1,2,4-oxadiazol-3-yl)phenyl)ethan-1-one] | ≥ 70 |
| O=C(CNc1ccccc1F)c1ccc(-c2noc(C(F)(F)F)n2)cc1 [Compound 29, 2-((2-fluorophenyl)amino)-1-(4-(5-(trifluoromethyl)-1,2,4-oxadiazol-3-yl)phenyl)ethan-1-one] | ≥ 70 |
| COc1ccc(CSCC(=O)c2ccc(-c3noc(C(F)(F)F)n3)cc2)cc1 [Compound 57, 2-((4-methoxybenzyl)thio)-1-(4-(5-(trifluoromethyl)-1,2,4-oxadiazol-3-yl)phenyl)ethan-1-one] | ≥ 70 |
| O=C(COc1ccc(F)nc1)c1ccc(-c2noc(C(F)(F)F)n2)cc1 [Compound 47, 2-((6-fluoropyridin-3-yl)oxy)-1-(4-(5-(trifluoromethyl)-1,2,4-oxadiazol-3-yl)phenyl)ethan-1-one] | ≥ 70 |
| O=C(COc1cccc(F)c1)c1ccc(-c2noc(C(F)(F)F)n2)cc1 [Compound 3, 2-(3-fluorophenoxy)-1-(4-(5-(trifluoromethyl)-1,2,4-oxadiazol-3-yl)phenyl)ethan-1-one] | ≥ 70 |
| Cc1cccc(OCC(=O)c2ccc(-c3noc(C(F)(F)F)n3)cc2)c1 [Compound 10, 2-(m-tolyloxy)-1-(4-(5-(trifluoromethyl)-1,2,4-oxadiazol-3-yl)phenyl)ethan-1-one] | ≥ 70 |
| O=C(CSc1cccc(Cl)c1)c1ccc(-c2noc(C(F)(F)F)n2)cc1 [Compound 54, 2-((3-chlorophenyl)thio)-1-(4-(5-(trifluoromethyl)-1,2,4-oxadiazol-3-yl)phenyl)ethan-1-one] | ≥ 70 |
| COc1ccc(OCC(=O)c2ccc(-c3noc(C(F)(F)F)n3)cc2)cc1 [Compound 2, 2-(4-methoxyphenoxy)-1-(4-(5-(trifluoromethyl)-1,2,4-oxadiazol-3-yl)phenyl)ethan-1-one] | ≥ 70 |
